Data as given in patent publication US8835644B2, “Broad spectrum benzothiophene-nitrothiazolide and other antimicrobials” (University of Virginia Patent Foundation, priority 2009, dated 2014).
≈ marks a conversion by molar mass, not a printed value. Structures can show the parent of a compound that is named as a salt. Where two headings read alike, the source gives them in different places. Marks after values point to notes of the source that are not given here. One block for each compound: values may come before it.

Columns and labels:
[1] = tested on: S. epidermidis; test: MIC testing by broth dilution, S. epidermidis plank; format: cell-based, Staphylococcus epidermidis
In short: (§1)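 Media: LB (E. coli), Trypticase Soy (S. epidermidis), BHI (C. jejuni); plank cells. C. difficile on Wilkins Chalgrin agar, anaerobic Kirby-Bauer disks, zone vs NTZ zone ratio.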

[2] = tested on: C. jejuni; test: MIC testing by broth dilution, C. jejuni; format: cell-based, Campylobacter jejuni
In short: as §1

[3] = tested on: PFOR (pyruvate ferredoxin oxidoreductase); test: Direct PFOR enzyme assay; format: biochemical
Experimental: (§2) Representative compounds of the invention were tested in a series of assays against a series of organisms as described above. […] The organisms tested include, C. difficile, H. pylori, C. jejuni, MRSA, S. epidermidis, and E. coli. S. epidermidis and E. coli were tested in the plank and biofilm assay. A disk diffusion assay was also used for C. difficile. Direct PFOR enzyme assays were also performed. All analogues and derivatives were not tested on every organism in every type of assay (the “-” in each table means that it was not tested).

[4] = tested on: MRSA; test: MIC testing by broth dilution, MRSA; format: cell-based, Staphylococcus aureus
In short: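 Values are broth-dilution MICs, defined as the well showing no growth on visual reading after 24 h; the tested range was 32 to 0.06 μg/ml, in organism-specific media (LB, Trypticase Soy, Brain Heart Infusion). The C. difficile entries come instead from anaerobic Kirby-Bauer disk zones, normalised to NTZ.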

[5] = tested on: C. difficile; test: Disk diffusion (Kirby Bower), C. difficile; format: cell-based, Clostridium difficile; conditions: for Disk Diffusion (%) C. difficile: zone of inhibited growth as relative ratio to the zone for NTZ
In short: as §1

[6] = tested on: E. coli; test: MIC testing by broth dilution, E. coli plank; format: cell-based, Escherichia coli
In short: as §1

[7] = tested on: H. pylori; test: MIC testing by broth dilution, H. pylori; format: cell-based, Helicobacter pylori
In short: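 Broth dilution MIC determination against H. pylori: a standard inoculum in 100 microliters of Brain Heart Infusion medium was placed in 96 well microplates. Test compounds began at 32 μg/ml in 200 microliters in well one and were serially diluted over a 32 to 0.06 range. After 24 h, plates were scored by eye and the first well without growth was recorded as the MIC.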

[8] = tested on: S. epidermidis biofilm; test: S. epidermidis biofilm assay (activity tables); format: cell-based, Staphylococcus epidermidis; conditions: Furan analogues table
Experimental: Staphylococcal strains were cultured overnight in TSB at 37° C. with shaking, diluted in fresh medium to an OD600 of 0.01 and 200 W was dispensed into sterile flat bottom polystyrene 96 well microtiter plates (Costar 3596, Corning Inc.). […] Each compound and dilution was tested in triplicate. The plates were incubated overnight at 37° C. in a humidified incubator, without shaking and both growth and biofilm accumulation were determined at 16 h.
Following recording of turbidities, the culture medium was aspirated and the wells were washed three times with distilled water, blotted on paper towels, and fixed with 75% ethanol for 10 minutes.
To visualize biofilm material, 0.5% crystal violet was added to each well and after 5 minutes was removed and the wells washed three times with distilled water. Plates were read using a microplate reader at a wavelength of 570 nm. The dye was then extracted by adding 200 W of 95% ethanol, and the absorbance was read again at 570 nm. All assays were performed in triplicate and the mean and standard deviation determined. […]
as §2

[9] = tested on: E. coli biofilm; test: E. coli biofilm assay (activity tables); format: cell-based, Escherichia coli; conditions: Escherichia coli; biofilm; Furan analogues table; read-out: MIC E. coli Biofilm
In short: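 After 24 h static culture at 37 °C in wells containing NTZ, strain 042 (1:100 inoculum) biofilm was quantified by 0.5% crystal violet absorbance at 570 nm. Planktonic growth was taken from turbidity or LB plate counts as cfu/ml; all runs triplicate, reported as mean and SD.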

[10] = broth dilution, Trypticase Soy, 24 h, read-out: MIC (μM) S. epidermidis Plank
[11] = broth dilution, Brain Heart Infusion, 24 h, read-out: MIC (μM) C. jejuni
[12] = broth dilution, Trypticase Soy, 24 h, read-out: MIC (μM) MRSA
[13] = broth dilution, LB medium, 24 h, read-out: MIC (μM) E. coli Plank
[14] = broth dilution, Brain Heart Infusion, 24 h, read-out: MIC (μM) H. pylori
[15] = Staphylococcus epidermidis, 24 h, read-out: MIC (μM) S. epidermidis Plank
[16] = Campylobacter jejuni, 24 h, read-out: MIC (μM) C. jejuni
[17] = Staphylococcus aureus, MRSA, 24 h, read-out: MIC (μM) MRSA
[18] = Escherichia coli, 24 h, read-out: MIC (μM) E. coli Plank
[19] = Helicobacter pylori, 24 h, read-out: MIC (μM) H. pylori
[20] = * biphasic initial inhibition followed by uninhibited rate, ** caused some precipitant in extract

SMILES: O=C(Nc1nc(Cl)c([N+](=O)[O-])s1)c1ccccc1 [VPC162087]
- MIC [1, 10]: 35.2 µM (≈ 9.99 µg/mL)
- MIC [2, 11]: 7.1 µM (≈ 2.01 µg/mL)
- PFOR inhibition relative to nitazoxanide (=100) [3]: 107%
- MIC [4, 12]: 112.8 µM (≈ 32 µg/mL)
- Disk Diffusion (%) C. difficile [5]: 66%
- MIC [6, 13]: 112.8 µM (≈ 32 µg/mL)
- MIC [7, 14]: 8.8 µM (≈ 2.5 µg/mL)

SMILES: O=C(Nc1ncc([N+](=O)[O-])s1)c1cc(C(F)(F)F)cc(C(F)(F)F)c1 [VPC16a1039]
- MIC [1, 10]: 1.9 µM (≈ 0.732 µg/mL)
- MIC [2, 11]: 41.5 µM (≈ 16 µg/mL)
- PFOR inhibition relative to nitazoxanide (=100) [3]: 54* %
- MIC [4, 12]: 2.6 µM (≈ 1 µg/mL)
- Disk Diffusion (%) C. difficile [5]: 80%
- MIC [6, 13]: 83.1 µM (≈ 32 µg/mL)
- MIC [7, 14]: 5.2 µM (≈ 2 µg/mL)

SMILES: NCCOc1ccsc1C(=O)Nc1ncc([N+](=O)[O-])s1 [VPC162125, 3-(2-Aminoethoxy)-N-(5-nitrothiazol-2-yl)thiophene-2-carboxamide hydrochloride]
- MIC [1, 15]: 91.2 µM
- MIC [2, 16]: 11.4 µM
- PFOR inhibition relative to nitazoxanide (=100) [3]: 137%
- MIC [4, 17]: 91.2 µM
- MIC [6, 18]: 91.2 µM
- MIC [7, 19]: 0.7 µM

SMILES: O=C(Nc1sc([N+](=O)[O-])cc1[N+](=O)[O-])c1cc(C(F)(F)F)ccc1Cl [VPC16b2026, 2-Chloro-N-(3,5-dinitrothiophen-2-yl)-5-(trifluoromethyl)benzamide]
- MIC ([1]; Staphylococcus epidermidis, read-out: MIC S. epidermidis Plank): 15.2 µM (≈ 6.01 µg/mL)
- MIC ([2]; Campylobacter jejuni, read-out: MIC C. jejuni): 2.5 µM (≈ 0.989 µg/mL)
- PFOR inhibition relative to nitazoxanide (=100) [3, 20]: 100%
- MIC ([4]; Staphylococcus aureus, MRSA, read-out: MIC MRSA): 30.3 µM (≈ 12 µg/mL)
- MIC ([7]; Helicobacter pylori, read-out: MIC H. pylori): 0.8 µM (≈ 0.317 µg/mL)

SMILES: O=C(Nc1ncc([N+](=O)[O-])s1)c1cccnc1F [VPC16a1052, 2-Fluoro-N-(5-nitrothiazol-2-yl)nicotinamide]
- MIC [2, 16]: 7.5 µM (≈ 2.01 µg/mL)
- PFOR inhibition relative to nitazoxanide (=100) [3]: 91%
- Disk Diffusion (%) C. difficile [5]: 100%
- MIC [6, 18]: 119 µM (≈ 32 µg/mL)
- MIC [7, 19]: 3.7 µM (≈ 0.992 µg/mL)

SMILES: O=C(Nc1sc([N+](=O)[O-])cc1[N+](=O)[O-])c1cccc(C(F)(F)F)c1Cl [VPC16b2028]
- MIC ([1]; planktonic, 2-amino-3,5-dinitrothiophene analogues table, read-out: MIC S. epidermidis Plank): 30.3 µM (≈ 12 µg/mL)
- MIC ([2]; 2-amino-3,5-dinitrothiophene analogues table, read-out: MIC C. jejuni): 1.9 µM (≈ 0.752 µg/mL)
- PFOR inhibition relative to nitazoxanide (=100) [3, 20]: 113%
- MIC ([4]; 2-amino-3,5-dinitrothiophene analogues table, read-out: MIC MRSA): 30.3 µM (≈ 12 µg/mL)
- MIC ([7]; 2-amino-3,5-dinitrothiophene analogues table, read-out: MIC H. pylori): 0.8 µM (≈ 0.317 µg/mL)

SMILES: NCCCc1ccccc1C(=O)Nc1ncc([N+](=O)[O-])s1 [VPC162134, 2-(3-Aminopropyl)-N-(5-nitrothiazol-2-yl)benzamide hydrochloride]
- MIC [1, 15]: 93.3 µM
- MIC [2, 16]: 17.5 µM
- PFOR inhibition relative to nitazoxanide (=100) [3]: 144%
- MIC [4, 17]: 93.3 µM
- MIC [7, 19]: 2.9 µM

- MIC ([1]; planktonic, Furan analogues table, read-out: MIC S. epidermidis Plank): 96.0 µM (≈ 32 µg/mL)
- MIC ([2]; Furan analogues table, read-out: MIC C. jejuni): 96.0 µM (≈ 32 µg/mL)
- PFOR inhibition relative to nitazoxanide (=100) ([3]; Furan analogues table): 81%
- MIC ([4]; Furan analogues table, read-out: MIC MRSA): 96.0 µM (≈ 32 µg/mL)
- MIC ([7]; Furan analogues table, read-out: MIC H. pylori): 1.0 µM (≈ 0.333 µg/mL)
SMILES: O=C(Nc1ncc([N+](=O)[O-])s1)c1ccc(-c2ccc(F)cc2)o1 [VPC16a1104]

- MIC ([1]; Staphylococcus epidermidis, planktonic, Furan analogues table, read-out: MIC S. epidermidis Plank): 25.1 µM (≈ 7.98 µg/mL)
- MIC ([2]; Campylobacter jejuni, Furan analogues table, read-out: MIC C. jejuni): 12.6 µM (≈ 4.01 µg/mL)
- MIC ([4]; Staphylococcus aureus, MRSA, Furan analogues table, read-out: MIC MRSA): 6.3 µM (≈ 2 µg/mL)
- MIC S. epidermidis Biofilm [8]: 50.3 µM (≈ 16 µg/mL)
- MIC ([6]; Escherichia coli, planktonic, Furan analogues table, read-out: MIC E. coli Plank): 101 µM (≈ 32 µg/mL)
- MIC [9]: 0.4 µM (≈ 0.127 µg/mL)
- MIC ([7]; Helicobacter pylori, Furan analogues table, read-out: MIC H. pylori): 1.6 µM (≈ 0.509 µg/mL)
SMILES: O=C(Nc1ncc([N+](=O)[O-])s1)c1ccc(Br)o1 [VPC161281, 5-Bromo-N-(5-nitrothiazol-2-yl)furan-2-carboxamide]
- Disk Diff (%) C. difficile ([5]; Nitazoxanide = 100, Furan analogues table): 92%
